These results are taken from patent publication US6649608B2, “2,4-di(hetero-)arylamino (oxy)-5-substituted pyrimidines as antineoplastic agents” (AstraZeneca AB, priority 2000, dated 2003).

The target of one assay is T1, CDK4/Cyclin D1 (Homo sapiens, UniProt P11802).
T1 construct: made in house; host or cells: SF21 insect cells (Spodoptera frugiperda), baculovirus co-infection; vector pVL1393
Briefly: CDK4 Inhibition Assay (SPA, GST-Rb substrate). It counts as biochemical. The note with it: in vitro kinase assay; read-out: CDK4 inhibitory activity IC50. How it is done:
The compounds were tested in an in vitro kinase assay in 96 well format using Scintillation Proximity Assay (SPA—obtained from Amersham) for measuring incorporation of [γ-33-P]-Adenosine Triphosphate into a test substrate (GST-Retinoblastoma). In each well was placed the compound to be tested (diluted in DMSO and water to correct concentrations) and in control wells either p16 as an inhibitor control or DMSO as a positive control.
Approximately 0.5 μl of CDK4/Cyclin D1 partially-purified enzyme (amount dependent on enzyme activity) diluted in 25 μl incubation buffer was added to each well then 20 μl of GST-Rb/ATP/ATP33 mixture (containing 0.5 μg GST-Rb and 0.2 μM ATP and 0.14 μCi [γ-33-P]-Adenosine Triphosphate), and the resulting mixture shaken gently, then incubated at room temperature for 60 minutes. […]
The plates were sealed with Topseal-S plate sealers, left for two hours then spun at 2500 rpm, 1124×g., for 5 minutes. The plates were read on a Topcount for 30 seconds per well. […]
E. coli paste was resuspended in 10 ml/g of NETN buffer (50 mM Tris pH 7.5, 120 mM NaCl, 1 mM EDTA, 0.5% v/v NP-40, 1 mM PMSF, 1 ug/ml leupeptin, 1 ug/ml aprotinin and 1 ug/ml pepstatin) and sonicated for 2×45 seconds per 100 ml homogenate. […] The final product was analysed by Sodium Dodeca Sulfate (SDS) PAGE (Polyacrylamide gel) using 8-16% Tris-Glycine gels (Novex, San Diego, USA). […]

Assay [1] addresses T2, human Focal Adhesion Kinase (FAK) (Homo sapiens, UniProt Q05397).
T2 construct: FAK (fall length human cDNA described by Andre et al); made in house; host or cells: insect cells (Sf21; printed 'Sf12'), baculovirus, pFastbac 1; cell lysate supernatant used as enzyme stock
As to the kind of experiment: FAK3 Kinase Inhibition Assay (in vitro enzyme ELISA). It counts as biochemical. Particulars: read-out: FAK inhibitory activity IC50. The text has this: This assay determines the ability of a test compound to inhibit tyrosine kinase activity of human Focal Adhesion Kinase (FAK).
DNA encoding FAK is obtained by total gene synthesis (Edwards M, International Biotechnology Lab 5(3), 19-25, 1987) or by cloning. These are then expressed in a suitable expression system to obtain polypeptide with tyrosine kinase activity.
Active FAK protein has been previously expressed in a baculovirus system using a similar N-terminal 6-histidine tag (Protein Expression And Purification, 1996, 7: 12-18). The human FAK cDNA was cloned into the baculovirus transplacement vector, pFastbac 1 (Life Technologies), and the recombinant construct was co-transfected into insect cells (for example Spodoptera frugiperda 21(Sf21)) with viral DNA to prepare recombinant baculovirus (details of the methods for the assembly of recombinant DNA molecules and the preparation and use of recombinant baculovirus can be found in standard texts for example Sambrook et al, 1989, Molecular cloning—A Laboratory Manual, 2nd edition, Cold Spring Harbour Laboratory Press and O'Reilly et al, 1992, Baculovirus Expression Vectors—A Laboratory Manual, W.H. Freeman and Co, New York. Details specific to the use of the pFastbac (‘Bac to Bac’) system are provided in Anderson et al., 1995, FOCUS (Life Technologies Bulletin Magazine), 17, p53.) […]

T2 sequence (Q05397 whole entry): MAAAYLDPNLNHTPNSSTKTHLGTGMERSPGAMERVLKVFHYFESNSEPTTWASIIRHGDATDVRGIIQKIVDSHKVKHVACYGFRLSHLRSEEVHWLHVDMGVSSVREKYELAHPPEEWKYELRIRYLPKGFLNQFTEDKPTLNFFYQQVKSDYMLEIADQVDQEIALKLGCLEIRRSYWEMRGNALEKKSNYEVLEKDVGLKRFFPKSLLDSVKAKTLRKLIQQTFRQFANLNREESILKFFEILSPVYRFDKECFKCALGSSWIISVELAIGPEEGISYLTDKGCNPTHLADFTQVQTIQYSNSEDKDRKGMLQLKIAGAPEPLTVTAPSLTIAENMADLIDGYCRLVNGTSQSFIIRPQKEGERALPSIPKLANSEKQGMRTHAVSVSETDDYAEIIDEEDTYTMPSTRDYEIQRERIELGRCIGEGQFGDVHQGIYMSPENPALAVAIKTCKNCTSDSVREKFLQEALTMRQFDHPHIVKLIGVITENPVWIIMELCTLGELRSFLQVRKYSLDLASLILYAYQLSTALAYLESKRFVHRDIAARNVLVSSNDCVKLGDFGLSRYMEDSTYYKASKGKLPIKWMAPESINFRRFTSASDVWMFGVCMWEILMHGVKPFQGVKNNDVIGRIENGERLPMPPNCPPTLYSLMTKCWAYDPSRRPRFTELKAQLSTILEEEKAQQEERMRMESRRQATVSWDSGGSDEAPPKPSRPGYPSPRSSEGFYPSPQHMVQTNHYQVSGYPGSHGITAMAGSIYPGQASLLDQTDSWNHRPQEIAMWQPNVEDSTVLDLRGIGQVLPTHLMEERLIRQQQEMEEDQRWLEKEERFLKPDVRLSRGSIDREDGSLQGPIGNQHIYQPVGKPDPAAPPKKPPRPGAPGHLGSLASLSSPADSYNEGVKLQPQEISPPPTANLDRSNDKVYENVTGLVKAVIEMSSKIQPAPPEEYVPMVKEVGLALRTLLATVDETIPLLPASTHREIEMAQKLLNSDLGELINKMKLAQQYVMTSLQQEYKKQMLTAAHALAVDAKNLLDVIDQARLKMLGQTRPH
T1 sequence (P11802 whole entry): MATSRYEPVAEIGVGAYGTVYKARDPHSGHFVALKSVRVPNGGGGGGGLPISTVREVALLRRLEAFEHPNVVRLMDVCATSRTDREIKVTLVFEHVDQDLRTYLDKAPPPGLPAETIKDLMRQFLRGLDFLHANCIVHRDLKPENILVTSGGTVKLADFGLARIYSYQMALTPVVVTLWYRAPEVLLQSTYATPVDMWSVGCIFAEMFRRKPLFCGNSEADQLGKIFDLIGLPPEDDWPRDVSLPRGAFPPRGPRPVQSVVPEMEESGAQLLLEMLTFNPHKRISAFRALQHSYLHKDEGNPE
T1 sequence (P24385 whole entry partner): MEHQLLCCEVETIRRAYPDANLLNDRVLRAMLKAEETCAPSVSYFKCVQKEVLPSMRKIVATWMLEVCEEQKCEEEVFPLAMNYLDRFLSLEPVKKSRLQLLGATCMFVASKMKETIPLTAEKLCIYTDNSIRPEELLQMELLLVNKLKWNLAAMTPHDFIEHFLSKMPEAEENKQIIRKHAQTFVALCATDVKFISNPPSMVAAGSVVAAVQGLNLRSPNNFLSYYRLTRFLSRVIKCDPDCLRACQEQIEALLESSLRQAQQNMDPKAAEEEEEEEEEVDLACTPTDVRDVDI

For `O=C(NCCN1CCCCC1)c1ccc(Nc2ncc(Br)c(Nc3ccccc3)n2)cc1` [Example 45], the 50% inhibitory concentration (IC50) at CDK4/Cyclin D1 worked out at 235 nM.

Consider `CCCCN(CCCC)CCCNC(=O)c1ccc(Nc2ncc(Br)c(Nc3ccccc3)n2)cc1` [Example 47], for which the IC50 in assay [1] was 97 nM. The same measure, in the same setting: as for `O=C(c1ccc(Nc2ncc(Br)c(Nc3ccccc3)n2)cc1)N1CCC(N2CCCC2)CC1` [Example 52], the figure is 814 nM.
